From publication PMC10712729, “A Phase I Trial of the Dual MET Kinase/OCT-2 Inhibitor OMO-1 in Metastatic Solid Malignancies Including MET Exon 14 Mutated Lung Cancer” (The Oncologist, 2023)
“Also recorded” adds a separate entry of the source.

Columns and labels:
[1] = Pharmacokinetics of OMO-1 in plasma, Module 1 Part A; assay type: in vivo, human
Description: (§1) The starting dose was 100 mg BID.
Analysis was performed using PKSolver to define Cmax, trough concentration (Ctrough), AUC∞, AUC0-last, Vd, clearance, elimination half-life (t½), and Tmax of OMO-1.[24] In the paired biopsy analysis, expression of total MET and phosphorylated MET was performed by immunohistochemistry.

METex14-positive NSCLC = test: Preliminary efficacy by RECIST v1.1, Module 1 Part B cohort 1; assay type: in vivo, human; conditions: OMO-1 monotherapy 200 or 250 mg BID
Description: as §1
Safety analyses were descriptive.

[2] = system: organic cation transporter 2 (OCT-2); set-up: method as in PMID 14576340; conditions: cited from earlier work
[3] = Phase I safety and tolerability of OMO-1 monotherapy, Module 1 Part A dose escalation (drug-related TEAEs, DLTs, RP2D)
Description: This study was part of a modular, first-in-patient, openlabel multicenter study of OMO-1, administered orally, mono-therapy, and in combination with EGFR-TKI, in patients with locally advanced, unresectable, or metastatic solid malignancies (study protocol can be). […] Module 1 (OMO-1 monotherapy) consisted of Part A (dose escalation) and Part B (expansion cohorts). Part A assessed the safety and tolerability of ascending doses of OMO-1 given as monotherapy in unselected patients with locally advanced, unresectable, or metastatic malignancies and determined the recommended phase 2 dose (RP2D). Part B assessed the preliminary efficacy of the RP2D of OMO-1 in patients with METex14-positive NSCLC (cohort 1) and patients with MET amplified NSCLC or patients with other MET positive solid tumors, either METex14 or MET amplification (MET basket; cohort 2). The MET status of the tumor was assessed locally by site-specific guidelines. For MET exon 14 skipping mutations next generation sequencing (NGS) was used and for MET amplifications either NGS or fluorescence in situ hybridization (Supplementary 1). Prior treatment with a MET inhibitor was an exclusion criterion.
OMO-1 was administered orally, twice daily (BID) with a minimal interval of 4-5 h with food in a continuous 21 day/cycle regimen until clinical progression or emergence of significant toxicity. The starting dose was 100 mg BID. The dose was escalated sequentially in cohorts of at least 3 patients using a standard 3 + 3 dose escalation design. […] During the monotherapy dose escalation Module 1 Part A, blood samples were collected for PK analysis throughout the study as per protocol (S1).
The dose-limiting toxicity (DLT) evaluation period was within the first cycle of treatment; although all events beyond this point were also reviewed at the time of dose escalation to ensure an OLED was chosen as RP2D.
Safety analyses were descriptive. With respect to primary objectives and endpoints, no specific hypotheses were tested statistically. The primary focus was on determining the safety profile and RP2D, and the identification of a range of biologically active doses and PK of OMO-1 in patients with cancer. Safety, PK, and PD biomarker data were reviewed on an ongoing basis in line with the cohort progression criteria by the Safety Review Committee (SRC).

FC(F)(c1ccc2ncccc2c1)c1nnc2ccc(-c3ccncc3)nn12 [OMO-1]
plasma exposure as measured by AUC(0-8 h), dose proportionality ([1]; 100 to 400 mg BID): dose-proportional without accumulation
AUC(0-8 h) ([1]; RP2D of 250 mg BID): 5684 ng·h/mL
Cmax ([1]; RP2D of 250 mg BID): 1372 ng/mL
T½ ([1]; oral, patients): 2.5 to 3 h
median Tmax ([1]; range across the dose escalation cohorts, second daily dose 4-5 h after first): 5 to 7.8 h
clinical benefit duration of at least 8 weeks (METex14-positive NSCLC): 5/10
partial response (METex14-positive NSCLC; RECIST v.1.1): No patients; also recorded: no partial response
inhibition of OCT-2 [2]: potent inhibitor
increased blood creatinine, drug-related TEAE ([3]; 100 mg BID cohort): no events
Fatigue, proportion of patients ([3]; 100 mg BID cohort, 1 patient): 20.0%
Decreased appetite, Drug-related TEAEs, All grades ([3]; 100 mg BID n = 5): 1 (20%) n (%)
Dizziness, Drug-related TEAEs, All grades ([3]; 100 mg BID n = 5): 1 (20%) n (%)
Fatigue, Drug-related TEAEs, All grades ([3]; 100 mg BID n = 5): 1 (20%) n (%)
Headache, Drug-related TEAEs, All grades ([3]; 100 mg BID n = 5): 1 (20%) n (%)
Nausea, Drug-related TEAEs, All grades ([3]; 100 mg BID n = 5): 2 (40%) n (%)
Nausea, Drug-related TEAEs, Grade ≥3 ([3]; 100 mg BID n = 5): 1 (20%) n (%)
Nausea, Drug-related TEAEs, SAE ([3]; 100 mg BID n = 5): 1 (20%) n (%)
Total n with AE, Drug-related TEAEs, All grades ([3]; 100 mg BID n = 5): 5 (100%) n (%)
Total n with AE, Drug-related TEAEs, Grade ≥3 ([3]; 100 mg BID n = 5): 2 (40%) n (%)
Total n with AE, Drug-related TEAEs, SAE ([3]; 100 mg BID n = 5): 2 (40%) n (%)
Vomiting, Drug-related TEAEs, All grades ([3]; 100 mg BID n = 5): 1 (20%) n (%)
Vomiting, Drug-related TEAEs, Grade ≥3 ([3]; 100 mg BID n = 5): 1 (20%) n (%)
Vomiting, Drug-related TEAEs, SAE ([3]; 100 mg BID n = 5): 1 (20%) n (%)
Anemia, Drug-related TEAEs, All grades ([3]; 200 mg BID n = 4): 2 (50%) n (%)
Anemia, Drug-related TEAEs, Grade ≥3 ([3]; 200 mg BID n = 4): 1 (25%) n (%)
Blood creatinine ↑, Drug-related TEAEs, All grades ([3]; 200 mg BID n = 4): 3 (75%) n (%)
Chills/ influenza like symptoms, Drug-related TEAEs, All grades ([3]; 200 mg BID n = 4): 1 (25%) n (%)
Chills/ influenza like symptoms, Drug-related TEAEs, SAE ([3]; 200 mg BID n = 4): 1 (25%) n (%)
Decreased appetite, Drug-related TEAEs, All grades ([3]; 200 mg BID n = 4): 1 (25%) n (%)
Diarrhoea, Drug-related TEAEs, All grades ([3]; 200 mg BID n = 4): 2 (50%) n (%)
Dizziness, Drug-related TEAEs, All grades ([3]; 200 mg BID n = 4): 1 (25%) n (%)
Fatigue, Drug-related TEAEs, All grades ([3]; 200 mg BID n = 4): 1 (25%) n (%)
Headache, Drug-related TEAEs, All grades ([3]; 200 mg BID n = 4): 3 (75%) n (%)
Nausea, Drug-related TEAEs, All grades ([3]; 200 mg BID n = 4): 3 (75%) n (%)
Total n with AE, Drug-related TEAEs, All grades ([3]; 200 mg BID n = 4): 4 (100%) n (%)
Total n with AE, Drug-related TEAEs, Grade ≥3 ([3]; 200 mg BID n = 4): 1 (25%) n (%)
Total n with AE, Drug-related TEAEs, SAE ([3]; 200 mg BID n = 4): 1 (25%) n (%)
Vomiting, Drug-related TEAEs, All grades ([3]; 200 mg BID n = 4): 2 (50%) n (%)
Vomiting, Drug-related TEAEs, Grade ≥3 ([3]; 200 mg BID n = 4): 1 (25%) n (%)
diarrhea, all grades ([3]; 250 mg BD): 14%
nausea, all grades ([3]; 250 mg BD): 57%
vomiting, all grades ([3]; 250 mg BD): 43%
Anemia, Drug-related TEAEs, All grades ([3]; 250 mg BID n = 7): 1 (14%) n (%)
Blood creatinine ↑, Drug-related TEAEs, All grades ([3]; 250 mg BID n = 7): 3 (43%) n (%)
Blood creatinine ↑, Drug-related TEAEs, Grade ≥3 ([3]; 250 mg BID n = 7): 1 (14%) n (%)
Decreased appetite, Drug-related TEAEs, All grades ([3]; 250 mg BID n = 7): 1 (14%) n (%)
Diarrhoea, Drug-related TEAEs, All grades ([3]; 250 mg BID n = 7): 1 (14%) n (%)
Dizziness, Drug-related TEAEs, All grades ([3]; 250 mg BID n = 7): 1 (14%) n (%)
Fatigue, Drug-related TEAEs, All grades ([3]; 250 mg BID n = 7): 3 (43%) n (%)
Fatigue, Drug-related TEAEs, Grade ≥3 ([3]; 250 mg BID n = 7): 1 (14%) n (%)
Nausea, Drug-related TEAEs, All grades ([3]; 250 mg BID n = 7): 4 (57%) n (%)
Nausea, Drug-related TEAEs, SAE ([3]; 250 mg BID n = 7): 1 (14%) n (%)
Tachycardia, Drug-related TEAEs, All grades ([3]; 250 mg BID n = 7): 1 (14%) n (%)
Total n with AE, Drug-related TEAEs, All grades ([3]; 250 mg BID n = 7): 7 (100%) n (%)
Total n with AE, Drug-related TEAEs, SAE ([3]; 250 mg BID n = 7): 1 (14%) n (%)
Vomiting, Drug-related TEAEs, All grades ([3]; 250 mg BID n = 7): 3 (43%) n (%)
patients discontinued due to related toxicity ([3]; 350 mg BID and 400 mg BID cohort): 4/8
increased blood creatinine, drug-related TEAE ([3]; 350 mg BID cohort): no events
Chills/ influenza like symptoms, Drug-related TEAEs, All grades ([3]; 350 mg BID n = 5): 1 (20%) n (%)
Decreased appetite, Drug-related TEAEs, All grades ([3]; 350 mg BID n = 5): 1 (20%) n (%)
Dizziness, Drug-related TEAEs, All grades ([3]; 350 mg BID n = 5): 1 (20%) n (%)
Fatigue, Drug-related TEAEs, All grades ([3]; 350 mg BID n = 5): 3 (60%) n (%)
Headache, Drug-related TEAEs, All grades ([3]; 350 mg BID n = 5): 1 (20%) n (%)
Nausea, Drug-related TEAEs, All grades ([3]; 350 mg BID n = 5): 1 (20%) n (%)
Tachycardia, Drug-related TEAEs, All grades ([3]; 350 mg BID n = 5): 1 (20%) n (%)
